Literature values as cited in patent US20060193908A1, “Extended release formulations of poorly soluble antibiotics” (priority 2004, published 2006).

Conditions: USP 27/NF 22 listing

solubility in water (USP descriptive term): practically insoluble in water
Compound: CC[C@H]1OC(=O)[C@H](C)[C@@H](O[C@H]2C[C@@](C)(OC)[C@@H](O)[C@H](C)O2)[C@H](C)[C@@H](O[C@@H]2O[C@H](C)C[C@H](N(C)C)[C@H]2O)[C@](C)(OC)C[C@@H](C)C(=O)[C@H](C)[C@@H](O)[C@]1(C)O [clarithromycin, Clarithromycin]
